Key:
[1] = target: T1, Beta-1,4-galactosyltransferase 1 (Bos taurus) (UniProt P08037); test: (§1) Inhibitory activity against bovine Beta-1,4-galactosyltransferase at 100 uM concentration
T1 sequence (whole entry): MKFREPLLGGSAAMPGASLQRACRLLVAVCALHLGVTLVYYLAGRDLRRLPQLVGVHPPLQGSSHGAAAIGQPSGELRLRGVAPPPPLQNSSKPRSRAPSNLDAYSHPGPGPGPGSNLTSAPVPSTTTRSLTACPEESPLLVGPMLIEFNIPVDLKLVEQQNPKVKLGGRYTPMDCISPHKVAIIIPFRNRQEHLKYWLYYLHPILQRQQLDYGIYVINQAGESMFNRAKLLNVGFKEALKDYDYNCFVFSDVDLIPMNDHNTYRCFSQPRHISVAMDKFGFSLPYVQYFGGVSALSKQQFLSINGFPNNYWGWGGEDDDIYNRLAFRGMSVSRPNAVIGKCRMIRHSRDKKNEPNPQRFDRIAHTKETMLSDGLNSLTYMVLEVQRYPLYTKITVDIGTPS

[2] = target: T1, Beta-1,4-galactosyltransferase 1 (Bos taurus); test: Inhibitory activity against bovine Beta-1,4-galactosyltransferase at 100 uM concentration; ND means Not detectable
[3] = target: T2, Beta-1,4-galactosyltransferase 1 (Bos taurus, UniProt P08037); test: as §1
T2 sequence (P08037 whole entry): T1 sequence (whole entry)

Rate [1]	Rate [2]	Ki [3]	Structure (SMILES)
100%			CC(=O)N[C@H]1[C@H](OCc2ccccc2)O[C@H](CO)[C@@H](O)[C@@H]1O
27%			CC(=O)N[C@H]1[C@H](O)[C@@H](N=[N+]=[N-])[C@H](OCc2ccccc2)O[C@@H]1CO
	Not detectable		CC(=O)N[C@H]1[C@H](OCc2ccccc2)O[C@H](CO)[C@@H](N=[N+]=[N-])[C@@H]1O
2%	Not detectable		CC(=O)N[C@H]1[C@H](OCc2ccccc2)O[C@H](CO)[C@@H](NC(C)=O)[C@@H]1O
2%		850 µM	CC(=O)N[C@H]1[C@H](OCc2ccccc2)O[C@H](CO)[C@@H](N)[C@@H]1O
4%			CC(=O)N[C@H]1[C@H](O)[C@@H](N)[C@H](OCc2ccccc2)O[C@@H]1CO

Reference: ChEMBL document CHEMBL1127234, “Acceptor analogues as potential inhibitors of bovine -1,4-galactosyl transferase” (Bioorg Med Chem Lett, 1994)
